ChEMBL document CHEMBL1139786, “Anti-tubercular agents. Part IV: Synthesis and antimycobacterial evaluation of nitroheterocyclic-based 1,2,4-benzothiadiazines” (2007)
Values after ≈ are worked out from the molar mass of the structure shown.

Tests used:
Assay type in all cases: functional
[1] = tested on: Mycobacterium tuberculosis; assay: Antibacterial activity against Mycobacterium tuberculosis H37Rv by nitrate reductase assay
[2] = tested on: Pseudomonas aeruginosa; assay: Antibacterial activity against Pseudomonas aeruginosa MTCC 1688 by broth dilution method
[3] = tested on: Escherichia coli; assay: Antibacterial activity against Escherichia coli MTCC 443 by broth dilution method
[4] = tested on: Bacillus subtilis; assay: Antibacterial activity against Bacillus subtilis MTCC 441 by broth dilution method
[5] = tested on: Staphylococcus aureus; assay: Antibacterial activity against Staphylococcus aureus MTCC 96 by broth dilution method

Question: `O=[N+]([O-])c1ccc(/C=N\NC2=NS(=O)(=O)c3ccccc3N2c2ccccc2)s1` was tested. Which MIC [1] did it give?
Answer: The MIC was 4 µg/mL (≈ 9.36 µM).

Question: What about the MIC [2] of the same molecule?
Answer: Its MIC is 150 µg/mL (≈ 351 µM).

Question: What about the MIC [3] of the same molecule?
Answer: Its MIC is 18.8 µg/mL (≈ 43.9 µM).

Question: And the MIC [4]?
Answer: The MIC was 37.5 µg/mL (≈ 87.7 µM).

Question: What about the MIC [5] of the same molecule?
Answer: The MIC was 37.5 µg/mL (≈ 87.7 µM).

Question: Which MIC [1] does the source give for `CN1C(NNC(=O)c2ccc([N+](=O)[O-])o2)=NS(=O)(=O)c2ccccc21` here?
Answer: Its MIC is 32 µg/mL (≈ 87.6 µM).

Question: What about the MIC [2] of the same molecule?
Answer: Its MIC is 150 µg/mL (≈ 411 µM).

Question: And the MIC [3]?
Answer: Its MIC is 18.8 µg/mL (≈ 51.3 µM).

Question: And the MIC [4]?
Answer: Its MIC is 18.8 µg/mL (≈ 51.3 µM).

Question: What about the MIC [5] of the same molecule?
Answer: Its MIC is 37.5 µg/mL (≈ 103 µM).

Question: For `CCN1C(NNC(=O)c2ccc([N+](=O)[O-])o2)=NS(=O)(=O)c2ccccc21`, which MIC [1] is on record?
Answer: Its MIC is 32 µg/mL (≈ 84.4 µM).

Question: What about the MIC [2] of the same molecule?
Answer: The MIC was 150 µg/mL (≈ 395 µM).

Question: And the MIC [3]?
Answer: Its MIC is 18.8 µg/mL (≈ 49.4 µM).

Question: What about the MIC [4] of the same molecule?
Answer: The MIC was 18.8 µg/mL (≈ 49.4 µM).

Question: And the MIC [5]?
Answer: Its MIC is 150 µg/mL (≈ 395 µM).

Question: How did the MIC [1] turn out when `CCN1C(NNC(=O)c2ccc(-c3ccccc3[N+](=O)[O-])o2)=NS(=O)(=O)c2ccccc21` was run?
Answer: Its MIC is > 100 µg/mL.

Question: And the MIC [2]?
Answer: Its MIC is 150 µg/mL (≈ 329 µM).

Question: And the MIC [3]?
Answer: Its MIC is 18.8 µg/mL (≈ 41.2 µM).

Question: What about the MIC [4] of the same molecule?
Answer: Its MIC is 18.8 µg/mL (≈ 41.2 µM).

Question: What about the MIC [5] of the same molecule?
Answer: The MIC was 9.37 µg/mL (≈ 20.6 µM).

Question: `O=C(NNC1=NS(=O)(=O)c2ccccc2N1c1ccccc1)c1ccc(-c2ccccc2[N+](=O)[O-])o1` was tested. Which MIC [1] did it give?
Answer: Its MIC is > 100 µg/mL.

Question: And the MIC [2]?
Answer: The MIC was 150 µg/mL (≈ 298 µM).

Question: And the MIC [3]?
Answer: The MIC was 75 µg/mL (≈ 149 µM).

Question: What about the MIC [4] of the same molecule?
Answer: Its MIC is 37.5 µg/mL (≈ 74.5 µM).

Question: What about the MIC [5] of the same molecule?
Answer: The MIC was 18.8 µg/mL (≈ 37.2 µM).

Question: What does the source list for `CN1C(NNC(=O)c2ccc(-c3ccccc3[N+](=O)[O-])o2)=NS(=O)(=O)c2cc(Cl)ccc21`?
Answer: MIC [1]: > 100 µg/mL; MIC [2]: 150 µg/mL (≈ 315 µM); MIC [3]: 18.8 µg/mL (≈ 39.4 µM); MIC [4]: 37.5 µg/mL (≈ 78.8 µM); MIC [5]: 75 µg/mL (≈ 158 µM)

Question: `CN1C(NNC(=O)c2ccc(-c3cccc([N+](=O)[O-])c3)o2)=NS(=O)(=O)c2ccccc21` was tested. Which MIC [1] did it give?
Answer: Its MIC is > 100 µg/mL.

Question: What about the MIC [2] of the same molecule?
Answer: Its MIC is 75 µg/mL (≈ 170 µM).

Question: And the MIC [3]?
Answer: Its MIC is 18.8 µg/mL (≈ 42.5 µM).

Question: And the MIC [4]?
Answer: Its MIC is 37.5 µg/mL (≈ 85 µM).

Question: And the MIC [5]?
Answer: The MIC was 18.8 µg/mL (≈ 42.5 µM).

Question: For `O=C(NNC1=NS(=O)(=O)c2ccccc2N1c1ccccc1)c1ccc(-c2cccc([N+](=O)[O-])c2)o1`, which MIC [1] is on record?
Answer: Its MIC is > 100 µg/mL.

Question: What about the MIC [2] of the same molecule?
Answer: Its MIC is 150 µg/mL (≈ 298 µM).

Question: What about the MIC [3] of the same molecule?
Answer: The MIC was 18.8 µg/mL (≈ 37.2 µM).

Question: What about the MIC [4] of the same molecule?
Answer: The MIC was 37.5 µg/mL (≈ 74.5 µM).

Question: And the MIC [5]?
Answer: Its MIC is 18.8 µg/mL (≈ 37.2 µM).

Question: What does the source list for `CCN1C(N/N=C\c2ccc([N+](=O)[O-])s2)=NS(=O)(=O)c2ccccc21`?
Answer: MIC [1]: 16 µg/mL (≈ 42.2 µM); MIC [2]: 150 µg/mL (≈ 395 µM); MIC [3]: 18.8 µg/mL (≈ 49.4 µM); MIC [4]: 18.8 µg/mL (≈ 49.4 µM); MIC [5]: 18.8 µg/mL (≈ 49.4 µM)

Question: What does the source list for `CC(C)N1C(N/N=C\c2ccc([N+](=O)[O-])s2)=NS(=O)(=O)c2ccccc21`?
Answer: MIC [1]: 4 µg/mL (≈ 10.2 µM); MIC [2]: 150 µg/mL (≈ 381 µM); MIC [3]: 18.8 µg/mL (≈ 47.7 µM); MIC [4]: 18.8 µg/mL (≈ 47.7 µM); MIC [5]: 18.8 µg/mL (≈ 47.7 µM)

Question: Which MIC [1] does the source give for `CN1C(N/N=C\c2ccc([N+](=O)[O-])o2)=NS(=O)(=O)c2ccccc21` here?
Answer: Its MIC is 8 µg/mL (≈ 22.9 µM).

Question: What about the MIC [2] of the same molecule?
Answer: Its MIC is 150 µg/mL (≈ 429 µM).

Question: What about the MIC [3] of the same molecule?
Answer: The MIC was 18.8 µg/mL (≈ 53.7 µM).

Question: What about the MIC [4] of the same molecule?
Answer: The MIC was 37.5 µg/mL (≈ 107 µM).

Question: What about the MIC [5] of the same molecule?
Answer: The MIC was 37.5 µg/mL (≈ 107 µM).

Question: How did the MIC [1] turn out when `CN1C(NNC(=O)c2ccc(-c3ccccc3[N+](=O)[O-])o2)=NS(=O)(=O)c2ccccc21` was run?
Answer: Its MIC is > 100 µg/mL.

Question: And the MIC [2]?
Answer: Its MIC is 75 µg/mL (≈ 170 µM).

Question: What about the MIC [3] of the same molecule?
Answer: Its MIC is 37.5 µg/mL (≈ 85 µM).

Question: What about the MIC [4] of the same molecule?
Answer: Its MIC is 37.5 µg/mL (≈ 85 µM).

Question: What about the MIC [5] of the same molecule?
Answer: Its MIC is 18.8 µg/mL (≈ 42.5 µM).

Question: How did the MIC [1] turn out when `CCN1C(N/N=C\c2ccc([N+](=O)[O-])o2)=NS(=O)(=O)c2ccccc21` was run?
Answer: Its MIC is 8 µg/mL (≈ 22 µM).

Question: And the MIC [2]?
Answer: Its MIC is 150 µg/mL (≈ 413 µM).

Question: What about the MIC [3] of the same molecule?
Answer: The MIC was 18.8 µg/mL (≈ 51.6 µM).

Question: And the MIC [4]?
Answer: Its MIC is 9.37 µg/mL (≈ 25.8 µM).

Question: What about the MIC [5] of the same molecule?
Answer: The MIC was 37.5 µg/mL (≈ 103 µM).

Question: `O=C(NNC1=NS(=O)(=O)c2ccccc2N1c1ccccc1)c1ccc([N+](=O)[O-])o1` was tested. Which MIC [1] did it give?
Answer: Its MIC is 8 µg/mL (≈ 18.7 µM).

Question: And the MIC [2]?
Answer: Its MIC is 150 µg/mL (≈ 351 µM).

Question: And the MIC [3]?
Answer: Its MIC is 18.8 µg/mL (≈ 43.9 µM).

Question: What about the MIC [4] of the same molecule?
Answer: Its MIC is 75 µg/mL (≈ 175 µM).

Question: What about the MIC [5] of the same molecule?
Answer: Its MIC is 37.5 µg/mL (≈ 87.7 µM).

Question: With `CN1C(NNC(=O)c2ccc([N+](=O)[O-])o2)=NS(=O)(=O)c2cc(Cl)ccc21` as the molecule, how does the MIC [1] read?
Answer: The MIC was 4 µg/mL (≈ 10 µM).

Question: And the MIC [2]?
Answer: Its MIC is 150 µg/mL (≈ 375 µM).

Question: What about the MIC [3] of the same molecule?
Answer: The MIC was 18.8 µg/mL (≈ 46.9 µM).

Question: And the MIC [4]?
Answer: The MIC was 18.8 µg/mL (≈ 46.9 µM).

Question: And the MIC [5]?
Answer: Its MIC is 37.5 µg/mL (≈ 93.8 µM).

Question: Which results are given for `O=[N+]([O-])c1ccc(/C=N\NC2=NS(=O)(=O)c3ccccc3N2c2ccccc2)o1`?
Answer: MIC [1]: 1 µg/mL (≈ 2.43 µM); MIC [2]: 150 µg/mL (≈ 365 µM); MIC [3]: 37.5 µg/mL (≈ 91.2 µM); MIC [4]: 37.5 µg/mL (≈ 91.2 µM); MIC [5]: 75 µg/mL (≈ 182 µM)

Question: What does the source list for `CCN1C(NNC(=O)c2ccc(-c3cccc([N+](=O)[O-])c3)o2)=NS(=O)(=O)c2ccccc21`?
Answer: MIC [1]: > 100 µg/mL; MIC [2]: 150 µg/mL (≈ 329 µM); MIC [3]: 75 µg/mL (≈ 165 µM); MIC [4]: 37.5 µg/mL (≈ 82.3 µM); MIC [5]: 75 µg/mL (≈ 165 µM)

Question: For `CN1C(N/N=C\c2ccc([N+](=O)[O-])s2)=NS(=O)(=O)c2ccccc21`, which MIC [1] is on record?
Answer: The MIC was 8 µg/mL (≈ 21.9 µM).

Question: And the MIC [2]?
Answer: Its MIC is 150 µg/mL (≈ 411 µM).

Question: What about the MIC [3] of the same molecule?
Answer: Its MIC is 37.5 µg/mL (≈ 103 µM).

Question: What about the MIC [4] of the same molecule?
Answer: Its MIC is 18.8 µg/mL (≈ 51.3 µM).

Question: And the MIC [5]?
Answer: The MIC was 37.5 µg/mL (≈ 103 µM).

Question: How did the MIC [1] turn out when `NNC(=O)c1ccncc1` [ISONIAZID] was run?
Answer: Its MIC is 0.5 µg/mL (≈ 3.65 µM).

Question: With `O=C1CN(/N=C/c2ccc([N+](=O)[O-])o2)C(=O)N1` [NITROFURANTOIN] as the molecule, how does the MIC [2] read?
Answer: The MIC was 150 µg/mL (≈ 630 µM).

Question: What about the MIC [3] of the same molecule?
Answer: Its MIC is 18.8 µg/mL (≈ 78.7 µM).

Question: And the MIC [4]?
Answer: The MIC was 18.8 µg/mL (≈ 78.7 µM).

Question: And the MIC [5]?
Answer: Its MIC is 18.8 µg/mL (≈ 78.7 µM).

Question: How did the MIC [1] turn out when `CO[C@H]1/C=C/O[C@@]2(C)Oc3c(C)c(O)c4c(O)c(c(/C=N/N5CCN(C)CC5)c(O)c4c3C2=O)NC(=O)/C(C)=C\C=C\[C@H](C)[C@H](O)[C@@H](C)[C@@H](O)[C@@H](C)[C@H](OC(C)=O)[C@@H]1C` [RIFAMPIN] was run?
Answer: The MIC was 0.12 µg/mL (≈ 0.146 µM).
